Assay results as given in patent US12486253B2, “Therapeutics for the degradation of mutant BRAF” (C4 THERAPEUTICS, INC., priority 2021, dated 2025).

Target: BRAF V600E (Homo sapiens, UniProt P15056, V600E)
Assay: HiBiT cellular BRAF^V600E degradation assay
Assay type: cell-based
Conditions: A375.10 cells, 24 h; for DC50: concentration at which 50% of total cellular BRAF^V600E is degraded; for Emax: residual protein remaining in the cell, read-out: HiBit 24 h Emax

BRAF V600E, sequence (P15056 whole entry V600E): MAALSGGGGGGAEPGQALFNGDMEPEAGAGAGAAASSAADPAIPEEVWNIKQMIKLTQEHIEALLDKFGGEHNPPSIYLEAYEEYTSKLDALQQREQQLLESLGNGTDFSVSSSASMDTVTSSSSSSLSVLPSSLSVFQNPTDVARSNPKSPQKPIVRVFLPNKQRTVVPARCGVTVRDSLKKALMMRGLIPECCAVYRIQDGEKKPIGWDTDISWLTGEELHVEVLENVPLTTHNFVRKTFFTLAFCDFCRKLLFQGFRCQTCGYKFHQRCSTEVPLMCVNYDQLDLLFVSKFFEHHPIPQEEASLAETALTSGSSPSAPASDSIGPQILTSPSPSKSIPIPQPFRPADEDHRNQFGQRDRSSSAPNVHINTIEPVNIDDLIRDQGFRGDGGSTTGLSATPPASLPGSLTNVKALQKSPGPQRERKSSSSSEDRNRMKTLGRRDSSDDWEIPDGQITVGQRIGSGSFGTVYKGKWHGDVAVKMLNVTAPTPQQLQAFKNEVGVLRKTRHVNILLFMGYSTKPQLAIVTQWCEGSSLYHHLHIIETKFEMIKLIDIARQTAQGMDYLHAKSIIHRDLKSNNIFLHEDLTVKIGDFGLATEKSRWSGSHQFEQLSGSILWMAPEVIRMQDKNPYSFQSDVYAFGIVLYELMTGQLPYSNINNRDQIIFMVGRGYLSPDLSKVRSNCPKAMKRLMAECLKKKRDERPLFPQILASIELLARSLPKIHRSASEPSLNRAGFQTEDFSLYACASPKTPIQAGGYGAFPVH

| DC50 [nM] | Emax [%] | SMILES |
| --- | --- | --- |
| 26.6 | 21 | CCN(C)S(=O)(=O)Nc1ccc(F)c(Oc2ccc3ncn(C4CCC5(CC4)CCN(C(=O)CN4CCC(c6ccc7c(C8CCC(=O)NC8=O)nn(C)c7c6)CC4)CC5)c(=O)c3c2)c1C#N (stereo not shown) [Example 156, 9-[6-[2-cyano-3-[[ethyl(methyl)sulfamoyl]amino]-6-fluorophenoxy]-4-oxoquinazolin-3-yl]-3-[2-[4-[3-(2,6-dioxopiperidin-3-yl)-1-methylindazol-6-yl]piperidin-1-yl]acetyl]-3-azaspiro[5.5]undecane] |
| 25 | 30 | CCN(C)S(=O)(=O)Nc1ccc(F)c(Oc2ccc3ncn(C4CCC5(CC4)CCN(C(=O)CC4(O)CCN(c6cc7c(cc6F)c(N6CCC(=O)NC6=O)nn7C)CC4)CC5)c(=O)c3c2)c1C#N [Example 158, 9-[6-[2-cyano-3-[[ethyl(methyl)sulfamoyl]amino]-6-fluorophenoxy]-4-oxoquinazolin-3-yl]-3-[2-[1-[3-(2,4-dioxo-1,3-diazinan-1-yl)-5-fluoro-1-methylindazol-6-yl]-4-hydroxypiperidin-4-yl]acetyl]-3-azaspiro[5.5]undecane] |
| 6.98 | 18.8 | CCN(C)S(=O)(=O)Nc1ccc(F)c(Oc2ccc3ncn([C@H]4CCC5(CCN(C(=O)CC6(O)CCN(c7cc8c(cc7F)c(N7CCC(=O)NC7=O)nn8C)CC6)CC5)C4)c(=O)c3c2)c1C#N [Example 159, 6-[2-cyano-3-[[ethyl(methyl)sulfamoyl]amino]-6-fluorophenoxy]-3-[(3S)-8-[2-[1-[3-(2,4-dioxo-1,3-diazinan-1-yl)-5-fluoro-1-methylindazol-6-yl]-4-hydroxypiperidin-4-yl]acetyl]-8-azaspiro [4.5]decan-3-yl]-4-oxoquinazoline] |
| 22.2 | 23.9 | CCN(C)S(=O)(=O)Nc1ccc(F)c(Oc2ccc3ncn([C@H]4CCC5(CCN(C(=O)CN6CCC(c7ccc8c(C9CCC(=O)NC9=O)nn(C)c8c7)C(F)(F)C6)CC5)C4)c(=O)c3c2)c1C#N (stereo partly drawn) [Example 160, 6-[2-cyano-3-[[ethyl(methyl)sulfamoyl]amino]-6-fluorophenoxy]-3-[(3S)-8-[2-[4-[3-(2,6-dioxopiperidin-3-yl)-1-methylindazol-6-yl]-3,3-difluoropiperidin-1-yl]acetyl]-8-azaspiro[4.5]decan-3-yl]-4-oxoquinazoline] |
| 17.3 | 14.5 | CCN(C)S(=O)(=O)Nc1ccc(F)c(Oc2ccc3ncn([C@H]4CCC5(CCN(C(=O)CN6CCN(c7cc8c(cc7F)c(N7CCC(=O)NC7=O)nn8C)CC6)CC5)C4)c(=O)c3c2)c1C#N [Example 162, 6-[2-cyano-3-[[ethyl(methyl)sulfamoyl]amino]-6-fluorophenoxy]-3-[(3S)-8-[2-[4-[3-(2,4-dioxo-1,3-diazinan-1-yl)-5-fluoro-1-methylindazol-6-yl]piperazin-1-yl]acetyl]-8-azaspiro [4.5]decan-3-yl]-4-oxoquinazoline] |
| 27.6 | 16.2 | CCN(C)S(=O)(=O)Nc1ccc(F)c(Oc2ccc3ncn(C4CCC5(CC4)CCN(C(=O)CN4CCN(c6cc7c(cc6F)c(N6CCC(=O)NC6=O)nn7C)CC4)CC5)c(=O)c3c2)c1C#N [Example 163, 9-[6-[2-cyano-3-[[ethyl(methyl)sulfamoyl]amino]-6-fluorophenoxy]-4-oxoquinazolin-3-yl]-3-[2-[4-[3-(2,4-dioxo-1,3-diazinan-1-yl)-5-fluoro-1-methylindazol-6-yl]piperazin-1-yl]acetyl]-3-azaspiro[5.5]undecane] |
| 26.6 | 15.6 | CCN(C)S(=O)(=O)Nc1ccc(F)c(Oc2ccc3ncn([C@H]4COC5(CCN(C(=O)CN6CCN(c7cc8c(cc7F)c(N7CCC(=O)NC7=O)nn8C)CC6)CC5)C4)c(=O)c3c2)c1C#N [Example 164, (3R)-3-[6-[2-cyano-3-[[ethyl(methyl)sulfamoyl]amino]-6-fluorophenoxy]-4-oxoquinazolin-3-yl]-8-[2-[4-[3-(2,4-dioxo-1,3-diazinan-1-yl)-5-fluoro-1-methylindazol-6-yl]piperazin-1-yl]acetyl]-1-oxa-8-azaspiro[4.5]decane] |
| 100 | 17.8 | Cn1nc(C2CCC(=O)NC2=O)c2ccc(C3CCN(CC(=O)N4CCC5(CC4)C[C@@H](n4cnc6ccc(Oc7c(F)ccc(NS(=O)(=O)N8CC[C@@H](F)C8)c7C#N)cc6c4=O)CO5)CC3)cc21 (stereo partly drawn) [Example 165, (3R)—N-[2-cyano-3-[3-[(3R)-8-[2-[4-[3-(2,6-dioxopiperidin-3-yl)-1-methylindazol-6-yl]piperidin-1-yl]acetyl]-1-oxa-8-azaspiro[4.5]decan-3-yl]-4-oxoquinazolin-6-yl]oxy-4-fluorophenyl]-3-fluoropyrrolidine-1-sulfonamide] |
| 34.5 | 23.5 | CCN(C)S(=O)(=O)Nc1ccc(F)c(Oc2ccc3ncn([C@H]4CCC5(CCN(C(=O)CN6CCC(c7ccc8c(C9CCC(=O)NC9=O)nn(C)c8c7)CC6)CC5)C4)c(=O)c3c2)c1Cl (stereo partly drawn) [Example 166, 6-[2-chloro-3-[[ethyl(methyl)sulfamoyl]amino]-6-fluorophenoxy]-3-[(3S)-8-[2-[4-[3-(2,6-dioxopiperidin-3-yl)-1-methylindazol-6-yl]piperidin-1-yl]acetyl]-8-azaspiro[4.5]decan-3-yl]-4-oxoquinazoline] |
| 42.6 | 16.5 | Cn1nc(C2CCC(=O)NC2=O)c2ccc(C3CCN(CC(=O)N4CCC5(CC4)C[C@@H](n4cnc6ccc(Oc7c(F)ccc(NS(=O)(=O)C8CCCC8)c7C#N)cc6c4=O)CO5)CC3)cc21 (stereo partly drawn) [Example 167, N-[2-cyano-3-[3-[(3R)-8-[2-[4-[3-(2,6-dioxopiperidin-3-yl)-1-methylindazol-6-yl]piperidin-1-yl]acetyl]-1-oxa-8-azaspiro[4.5]decan-3-yl]-4-oxoquinazolin-6-yl]oxy-4-fluorophenyl]cyclopentanesulfonamide] |
| 36.5 | 14.1 | CC(C)S(=O)(=O)Nc1ccc(F)c(Oc2ccc3ncn([C@H]4COC5(CCN(C(=O)CN6CCC(c7ccc8c(C9CCC(=O)NC9=O)nn(C)c8c7)CC6)CC5)C4)c(=O)c3c2)c1C#N (stereo partly drawn) [Example 168, N-[2-cyano-3-[3-[(3R)-8-[2-[4-[3-(2,6-dioxopiperidin-3-yl)-1-methylindazol-6-yl]piperidin-1-yl]acetyl]-1-oxa-8-azaspiro[4.5]decan-3-yl]-4-oxoquinazolin-6-yl]oxy-4-fluorophenyl]propane-2-sulfonamide] |
| 30.7 | 7.11 | CCN(C)S(=O)(=O)Nc1ccc(F)c(Oc2ccc3ncn([C@H]4COC5(CCN(C(=O)CN6CC(c7ccc8c(C9CCC(=O)NC9=O)nn(C)c8c7)C6)CC5)C4)c(=O)c3c2)c1C#N (stereo partly drawn) [Example 171, (3R)-3-[6-[2-cyano-3-[[ethyl(methyl)sulfamoyl]amino]-6-fluorophenoxy]-4-oxoquinazolin-3-yl]-8-[2-[3-[3-(2,6-dioxopiperidin-3-yl)-1-methylindazol-6-yl]azetidin-1-yl]acetyl]-1-oxa-8-azaspiro[4.5]decane] |
| 28.9 | 25.1 | CCN(C)S(=O)(=O)Nc1ccc(F)c(Oc2ccc3ncn([C@H]4CCC5(CCN(C(=O)CC6(O)CCN(c7ccc8c(N9CCC(=O)NC9=O)nn(C)c8c7F)CC6)CC5)C4)c(=O)c3c2)c1C#N [Example 172, 6-[2-cyano-3-[[ethyl(methyl)sulfamoyl]amino]-6-fluorophenoxy]-3-[(3S)-8-[2-[1-[3-(2,4-dioxo-1,3-diazinan-1-yl)-7-fluoro-1-methylindazol-6-yl]-4-hydroxypiperidin-4-yl]acetyl]-8-azaspiro[4.5]decan-3-yl]-4-oxoquinazoline] |
| 192 | 46 | CCN(C)S(=O)(=O)Nc1ccc(F)c(Oc2ccc3ncn([C@H]4COC5(CCN(C(=O)CC6(O)CCN(c7ccc8c(N9CCC(=O)NC9=O)nn(C)c8c7F)CC6)CC5)C4)c(=O)c3c2)c1C#N [Example 173, (3R)-3-[6-[2-cyano-3-[[ethyl(methyl)sulfamoyl]amino]-6-fluorophenoxy]-4-oxoquinazolin-3-yl]-8-[2-[1-[3-(2,4-dioxo-1,3-diazinan-1-yl)-7-fluoro-1-methylindazol-6-yl]-4-hydroxypiperidin-4-yl]acetyl]-1-oxa-8-azaspiro[4.5]decane] |
| 31.2 | 31.1 | COC1CCN(S(=O)(=O)Nc2ccc(F)c(Oc3ccc4ncn([C@H]5COC6(CCN(C(=O)CC7(O)CCN(c8cc9c(cc8F)c(N8CCC(=O)NC8=O)nn9C)CC7)CC6)C5)c(=O)c4c3)c2C#N)C1 (stereo partly drawn) [Example 175, N-[2-cyano-3-[3-[(3R)-8-[2-[1-[3-(2,4-dioxo-1,3-diazinan-1-yl)-5-fluoro-1-methylindazol-6-yl]-4-hydroxypiperidin-4-yl]acetyl]-1-oxa-8-azaspiro[4.5]decan-3-yl]-4-oxoquinazolin-6-yl]oxy-4-fluorophenyl]-3-methoxypyrrolidine-1-sulfonamide] |
| 20.5 | 24.8 | CO[C@H]1CCN(S(=O)(=O)Nc2ccc(F)c(Oc3ccc4ncn([C@H]5COC6(CCN(C(=O)CC7(O)CCN(c8cc9c(cc8F)c(N8CCC(=O)NC8=O)nn9C)CC7)CC6)C5)c(=O)c4c3)c2C#N)C1 [Example 176, (3S)—N-[2-cyano-3-[3-[(3R)-8-[2-[1-[3-(2,4-dioxo-1,3-diazinan-1-yl)-5-fluoro-1-methylindazol-6-yl]-4-hydroxypiperidin-4-yl]acetyl]-1-oxa-8-azaspiro[4.5]decan-3-yl]-4-oxoquinazolin-6-yl]oxy-4-fluorophenyl]-3-methoxypyrrolidine-1-sulfonamide] |
| 18 | 22.3 | CO[C@@H]1CCN(S(=O)(=O)Nc2ccc(F)c(Oc3ccc4ncn([C@H]5COC6(CCN(C(=O)CC7(O)CCN(c8cc9c(cc8F)c(N8CCC(=O)NC8=O)nn9C)CC7)CC6)C5)c(=O)c4c3)c2C#N)C1 [Example 177, (3R)—N-[2-cyano-3-[3-[(3R)-8-[2-[1-[3-(2,4-dioxo-1,3-diazinan-1-yl)-5-fluoro-1-methylindazol-6-yl]-4-hydroxypiperidin-4-yl]acetyl]-1-oxa-8-azaspiro[4.5]decan-3-yl]-4-oxoquinazolin-6-yl]oxy-4-fluorophenyl]-3-methoxypyrrolidine-1-sulfonamide] |
